Data reported in patent publication US11851631B2, “Household product delivering cooling sensations” (TAKASAGO INTERNATIONAL CORPORATION, priority 2016, dated 2023).

Columns and labels:
human TRPM8 = molecular target: T1, human TRPM8 (Homo sapiens, UniProt Q7Z2W7); assay: TRPM8 activation, Fluo-8 calcium fluorescence (FLIPR) in HEK-293 cells; format: cell-based; settings: HEK-293 cells stably transfected with human TRPM8; for EC50: normalised to WS3 EC100
T1 construct: expressed in transfected cells; host or cells: HEK-293
Protocol: HEK-293 (Human Embryonic Kidney) cells stably transfected with human TRPM8 were grown in a culture medium of EMEM (minimum Essential Medium Eagle) with Earl's salts balanced salt solution (Lonza catalogue No BE12-125F), 5 mL of 200 mM Ultraglutamine 1 (Lonza Catalogue No BE17-605E/U1), 5 mL of 100× Penicillin/Streptomycin (Lonza Catalogue No DE17-602E) 50 mL of Fetal bovine serum (Euroclone Cat No ECS0180L) 2 mL of 100 mg/mL Genticin sulphate (G418 sulphate InvivoGen CatAnt-gn-5).
10,000 cells/well were seeded in a 384 MTP in complete medium. Then after 24 h the culture medium was manually removed. The cells were loaded with 20 μL/well of 0.5× Fluo-8 NW dye in standard Tyrode's buffer (Screen Quest™ Fluo-8 No wash Calcium assay kit supplied by AAT Bioquest catalogue No 26316) The plate was incubated for 1 h at room temperature in the dark. 10 μL/well of test compounds and controls were injected with the FLIPR^TETRA (Molecular Devices) and the emitted fluorescence signal was recorded at 520 nm for 3 min. The compound multiwall plate contained the samples at 8 different doses in quadruplicate data points. The dose response of the samples were performed starting from 100 mM concentration in 100% DMSO with a serial dilution of 1:2 and then diluted in assay buffer at the final concentration of 100 μM, 50 μM, 25 μM, 12.5 μM, 6 μM, 3 μM, 1.5 μM, and 0.7 μM.
In the compound plate was also present a dose response of the reference agonist N ethyl-p-menthane-3-carboxamide (WS3) at 8 concentrations and in duplicate. This reference control dosed as 16 wells (duplicates for each concentration) of reference agonist at EC100 correspond to the MAX signal response (100% activity). There were also 16 wells of blanks i.e. assay buffer without either a test sample or reference agonist which correspond to the MIN signal response (0% activity). MAX and MIN controls are used for data analysis (RZ′ calculation) and normalization of compound activity.
For data analysis the response value is calculated as the maximum signal of the kinetic trace after the injection minus the median of the points before injection and multiplied by the normalization factor (NF). The normalisation factor is the baseline mean of all wells in the plate divided by the baseline of a specific well. […]
The EC50 of the test samples was then calculated using a curve fitting program available within the data analysis software.

panel of 84 subjects = assay: Comparison of sensations between isopulegol and menthoxypropanediol (cool sensation in the nose); format: in vivo, human; settings: 3% in triethyl citrate, isopulegol compared to menthoxypropanediol, ANOVA p<0.05
Protocol: A panel of 84 subjects was selected to take part in a comparative test between isopulegol (available as Coolact (registered trademark) P) and menthoxypropanediol (CAS 87061-04-9, available as Coolact (registered trademark) 10), both known for their cooling effect on skin.
The samples of isopulegol and menthoxypropanediol were prepared by dilution to 3% in Triethyl Citrate (TEC).
Panelists also had to score whether they perceived a cool sensation in the nose, on a scale of +100 (very cool) to −100 (very hot) with 0 (neutral) on the middle of the scale.

T1 sequence (Q7Z2W7 whole entry): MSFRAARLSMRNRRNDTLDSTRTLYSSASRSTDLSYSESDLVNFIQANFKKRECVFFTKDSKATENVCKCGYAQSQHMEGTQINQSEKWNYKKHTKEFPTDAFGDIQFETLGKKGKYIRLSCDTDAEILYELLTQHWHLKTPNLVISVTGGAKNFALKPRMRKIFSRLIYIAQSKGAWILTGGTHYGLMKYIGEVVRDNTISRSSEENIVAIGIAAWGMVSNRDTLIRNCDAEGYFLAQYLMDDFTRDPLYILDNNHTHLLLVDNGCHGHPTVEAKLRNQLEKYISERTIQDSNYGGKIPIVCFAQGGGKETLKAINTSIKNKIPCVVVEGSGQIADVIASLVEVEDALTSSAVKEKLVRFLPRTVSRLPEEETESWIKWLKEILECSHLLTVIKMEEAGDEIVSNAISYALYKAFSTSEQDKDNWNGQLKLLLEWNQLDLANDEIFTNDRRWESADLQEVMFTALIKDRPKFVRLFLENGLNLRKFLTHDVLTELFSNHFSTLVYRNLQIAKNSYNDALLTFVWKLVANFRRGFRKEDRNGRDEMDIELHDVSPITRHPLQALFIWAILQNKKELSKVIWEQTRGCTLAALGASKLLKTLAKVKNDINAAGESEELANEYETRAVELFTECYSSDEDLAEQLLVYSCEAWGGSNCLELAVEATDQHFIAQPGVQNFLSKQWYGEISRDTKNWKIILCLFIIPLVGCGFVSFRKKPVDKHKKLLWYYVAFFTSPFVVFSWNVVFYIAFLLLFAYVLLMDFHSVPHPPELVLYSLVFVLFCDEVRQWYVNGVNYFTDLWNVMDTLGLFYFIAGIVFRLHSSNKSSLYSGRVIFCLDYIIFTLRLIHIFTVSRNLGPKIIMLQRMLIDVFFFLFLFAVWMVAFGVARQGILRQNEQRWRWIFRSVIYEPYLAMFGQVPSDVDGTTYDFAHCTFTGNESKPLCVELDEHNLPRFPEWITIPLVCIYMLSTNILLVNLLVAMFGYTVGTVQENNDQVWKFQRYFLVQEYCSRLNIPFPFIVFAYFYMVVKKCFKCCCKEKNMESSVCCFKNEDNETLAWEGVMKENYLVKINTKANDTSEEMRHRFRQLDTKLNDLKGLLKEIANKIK

| Compound | EC50 (human TRPM8) | cooling perception in the nose (in words) (panel of 84 subjects) | TRPM8 activation (in words) (human TRPM8) |
| --- | --- | --- | --- |
| CCNC(=O)C1CC(C)CCC1C(C)C (centres unmarked) [WS3, N ethyl-p-menthane-3-carboxamide] | 6 µM |  |  |
| C=C(C)[C@@H]1CC[C@@H](C)C[C@H]1O (racemic) [Isopulegol, isopulegol] |  | improved cooling perception | activate TRPM8 |
| CC(C)[C@@H]1CC[C@@H](C)C[C@H]1OCC(O)CO (some centres unmarked) [Menthoxypropanediol, menthoxypropanediol] | 7.7 µM |  | activate TRPM8 |
